These results are taken from patent publication US7119064B2, “Use of colostrinin, constituent peptides thereof, and analogs thereof as modulators of intracellular signaling molecules” (Board of Regents, The University of Texas System, priority 1999, dated 2006).

Holding throughout (assay type): cell-based
The subject of one data set is PC12 cells. Description: 4HNE-induced apoptosis, annexin V-PE / 7-AAD flow cytometry. On the procedure: FIG. 8. […] PC12 cells were treated with CLN (1 μg per ml) for 15 min and 4HNE (100 nM) was added. Twenty four hours later, cells were harvested and stained with annexin V-PE and 7-AAD. 1, solvent alone; 2, 100 nM 4HNE; 3, TROLOX (vitamin E) 4, col (internal control)+100 nM 4HNE; 5, CLN alone (1 μg per ml); 6, CLN (1 μg per ml)+100 nM 4HNE.
Apoptosis is a specific mode of cell death recognized by a characteristic pattern of morphological, biochemical, and molecular changes. Currently the hallmark of apoptosis in vitro is DNA fragmentation and changes in plasma membrane reorganization that allows for the surface expression of phosphatidyl-D-serine and result in increased membrane permeability. The protection of cells against 4HNE by CLN using increased permeability and cell membrane expression of phosphatidyl-D-serine was investigated.
Cells were simultaneously labeled with fluorochrome-conjugated annexin V-PE (detecting PS asymmetry in the plasma membrane, an early marker of apoptosis), 7-aminoactinomycin D (7-AAD) (detecting increased membrane permeability associated with both apoptosis and necrosis). A dual laser flow cytometer (either a Becton-Dickinson FACScan) was used for the simultaneous detection of the PE-conjugated annexin V (which is excited at […]), 7-AAD (excited at 488 nm and emitting at 670 nm). […]
In general terms: Flow cytometry measures light scatter and fluorescence of single cells or particles in a stream.

Data set [1] concerns 4HNE-protein adducts in PC12 cells. Description: 4HNE-protein adduct formation, fluorescent microscopy (immunocytochemistry). The conditions noted are these: 4HNE 25 nM or H2O2 100 μM alone. From the text: Cell cultures: Pheochromocytoma (PC12) cells were provided by Dr. Regino Perez-Polo (University of Texas Medical Branch, Department of Human Biological Chemistry and Genetics) and maintained in EMEM supplemented with 10% fetal bovine serum, penicillin (100 IU/mI) and streptomycin (100 micrograms per milliliter (μg/ml)). Exponentially growing populations of PC12 cells were sub-cultured and used for all experiments.
Immunocytochemistry: PC12 cells grown on cover-slips were fixed overnight in PBS containing 2% paraformaldehyde at 4° C. Cells were permeabilized by 0.3% Triton X-100, washed in PBS then incubated with primary antibody in PBS containing 0.05% Tween 20 (PBS-T). After washing 3 times in PBS-T, FITC-labeled anti-rabbit IgG (Santa Cruz Biotechnology Inc.) was added. Cells were washed (5 times, for 10 min) with PBS-T and mounted on microscope slides in anti-fade solution (Dako, Inc.). Images of cellular immunofluorescence were acquired using a NIKON Eclipse TE300 scanning microscope.
Fluorescent microscopy and Western blot analysis was undertaken to investigate the extent of 4HNE protein-adduct formation in cultures of PC12 cells in the presence of CLN. Cells were pretreated with CLN or LAH in the presence or absence of 4HNE and then analyzed for the formation of 4HNE-protein adducts.

Data set [2] has as its system GSH extrusion from PC12 cells. The data set can be described thus: Reduced GSH in extracellular fluid (GSH extrusion). The conditions noted are these: 4HNE, relative to CLN- or mock-treated cells. The protocol:
To determine whether the loss of intracellular GSH was due to it's extrusion from the cells or oxidation, the level of reduced GSH in the extra-cellular fluid was evaluated.

In a further data set the test system is JNK. The data set can be described thus: 4HNE-induced JNK activation, Western blot with anti-phospho-(Thr-183/Tyr-185) JNK antibody. The note with it: PC12 cells. On the procedure:
Western blot analysis: PC12 cells were plated at 7×10^6 cells/T75 flask. After exposure to 4HNE, colostrinin or their combination, cells were collected and lysed in 50 millimolar (mM) Tris, 5 mM EDTA, 150 mM NaCl, 0.5% NP-40, 10% glycerol and protease inhibitor cocktail (supplemented with 1 mM Na3VO4, 2 mM EDTA, 1 mM phenylmethylsulfonyl fluoride). Lysates were centrifuged at 14,000g for 10 minutes (min) (4° C.) and 40 μg of protein was fractionated on a 10% SDS-polyaciylamide gel and transferred to protein-optimized membranes (Amersham, Inc.). p53 was detected using specific antibody (DO1; Santa Cruz Biotechnology, Inc.) at a dilution of 1:300. Adducts were detected using an antibody to HNE-protein adducts (Phanningen, Inc.) at a dilution of 1:500. The anti-phospho-JNK antibody (New England Biolabs, Inc., Beverly, Mass.) was raised against a synthetic phosphopeptide (SFMMT*PY*VVTRYYR) corresponding to residues 179–193 of JNK. […]
The effect of CLN on 4HNE-induced activation of JNK in PC12 cells was investigated. The activation of JNK was monitored by Western blot analysis using a highly specific anti-phospho- (Thr-183/Tyr-185) JNK antibody (Materials and Methods).
(Immunoblotting shows a protein as a band on a membrane.)

A further data set concerns p53. Description: 4HNE-induced activation of p53, Western blot. The note with it: 4HNE-treated PC12 cells. On the procedure: (§1) Western blot analysis: PC12 cells were plated at 7×10^6 cells/T75 flask. After exposure to 4HNE, colostrinin or their combination, cells were collected and lysed in 50 millimolar (mM) Tris, 5 mM EDTA, 150 mM NaCl, 0.5% NP-40, 10% glycerol and protease inhibitor cocktail (supplemented with 1 mM Na3VO4, 2 mM EDTA, 1 mM phenylmethylsulfonyl fluoride). Lysates were centrifuged at 14,000g for 10 minutes (min) (4° C.) and 40 μg of protein was fractionated on a 10% SDS-polyaciylamide gel and transferred to protein-optimized membranes (Amersham, Inc.). p53 was detected using specific antibody (DO1; Santa Cruz Biotechnology, Inc.) at a dilution of 1:300. Adducts were detected using an antibody to HNE-protein adducts (Phanningen, Inc.) at a dilution of 1:500. The anti-phospho-JNK antibody (New England Biolabs, Inc., Beverly, Mass.) was raised against a synthetic phosphopeptide (SFMMT*PY*VVTRYYR) corresponding to residues 179–193 of JNK. For visualization of primary antibody binding, all blots were incubated with horseradish peroxidase-conjugated secondary antibody (Amersham, Inc.) at a dilution of 1:2000, followed by chemiluminescence detection (Amersham, Inc.) and autoradiography.
Whether CLN could modulate p53 levels after 4HNE exposure was also investigated.

The subject of data set [3] is intracellular GSH in PC12 cells. The data set can be described thus: Intracellular glutathione (GSH) level, o-phthalaldehyde fluorimetry. The protocol:
Measurement of glutathione (GSH): In brief, PC12 cells were mock- or pre-treated with CLN or lactalbumin hydrolysate (LAH), both in 10 μg/ml concentration and then exposed to 4HNE (25 nM). PBS-washed (twice) cells were then extracted with 25% (w/v) metaphosphoric acid solution containing 5 mM EDTA. After ultracentrifugation (105,000 g for 30 min), 100 μl of 100 mM phosphate solution (pH 8.0) containing 5 mM EDTA and 10 μl of o-phthalaldehyde OPA(OPD; Molecular Probes, Inc.) was added to the supernatant, and the fluorescence intensity at 420 nm determined with excitation set at 350 nm (A. P. Senft et al., Anal Biochem., 280:80–86 (2000)).
To investigate whether the anti-oxidant effect of CLN was due to protection of intracellular GSH levels, PC12 cells were pre-treated (with CLN or LAH) and exposed to 4HNE, as described above, and changes in GSH levels were determined fluorimetrically. […] OPA (o-phthalaldehyde or phthalic dicarboxaldehyde) is highly fluorescent when it is conjugated to GSH (A.P. Senft et al., Anal Biochem., 280:80–86 (2000)).

Data set [4] has as its system 4HNE-protein adducts in PC12 cells. Description: 4HNE-protein adduct levels, Western blot analysis. The conditions noted are these: 4HNE 25, 12.5, 6.2 nM alone. On the procedure:
as §1
To confirm the results generated by immunochemistry, Western blot analysis was used to investigate changes in 4HNE-protein adduct levels in cells treated with 4HNE alone or CLN plus 4HNE.

Data set [5] relates to SH-SY5Y cells. Description: Protection against retinoic acid toxicity in SH-SY5Y cells, microscopic grading. The note with it: for DIFFERENTIATION: Retinoic Acid 20 μM (Day 1) alone. The protocol: (§2) Retinoic Acid was left on the plate for the duration of the experiment or until washed off. Colostrinin was added to the plate at the indicated doses. When added on Day 1, it was present during the entire experiment. When added on Day 5, it was incubated on the plate for 30 minutes at 37° C. and then removed. The wells were washed twice with PBS before adding β-Amyloid. Cultures were then observed under the microscope and graded.

The subject of data set [6] is SH-SY5Y cells. Description: Anti-apoptotic activity against β-amyloid toxicity in SH-SY5Y cells, microscopic grading. The conditions noted are these: Beta-amyloid 10 μg/ml added on day 5. The protocol: as §2, with “To determine whether this was reproducible and to determine the potency of CLN to inhibit retinoic acid toxicity, two concentration of retinoic acid were used to treat cells on day one of the experiment, 20 μM and 40 μM. *Control wells were mock-treated for the duration of the experiment. Retinoic” for “Retinoic”

Marks after values point to notes of the source that are not given here.

With `CCCCCC(O)/C=C/C=O` (centres unmarked) [4HNE], the “toxic effects / induction of apoptosis” value in the data set on PC12 cells (4HNE 25 nM, PC12 cells) is given as “did not show toxic effects or induce apoptosis”. For the same molecule, the “apoptosis, 4HNE alone” value with PC12 cells (4HNE 100 nM) was “Induction of apoptosis”. Also, the “4HNE-protein adduct fluorescence, inducer alone” value in data set [1] is reported as “bright fluorescence”. For the same molecule, the “OPA-GSH-mediated fluorescence of extracellular fluid” value in data set [2] is reported as “significant increase in OPA-GSH-mediated fluorescence”. The “JNK phosphorylation, 4HNE alone” value in the data set on JNK (4HNE 25 nM alone) is “potent inducer of JNK phosphorylation”. Further, the “p53 activation, 4HNE alone” value in the data set with p53 is given as “induced its activation”. Further, the “loss of GSH” value in data set [3] (4HNE 25 nM) is “more than 50%”. Also, the “intracellular GSH levels, 4HNE alone” value in [3] (4HNE alone for 30 min) was “significant reduction of intracellular GSH levels”. Also, the “4HNE-protein adduct levels (Western blot), 4HNE alone” value in [4] was “significant increase in levels of 4HNE-protein adducts”.
For the molecule `Nc1ncnc2c1nc(Sc1ccc(Cl)cc1)n2[C@@H]1O[C@@H]2COP(=O)(O)O[C@H]2[C@H]1O` [8-(4-chlorophenylthio)-cAMP], the “4HNE-induced JNK phosphorylation” value in the data set on JNK (pretreatment with inhibitor of JNK activation) is “prevented 4HNE-induced JNK phosphorylation”.
On to `OO` [H2O2], for which the “4HNE-protein adduct fluorescence, inducer alone” value in data set [1] is “bright fluorescence”.
Regarding `CC1=C(/C=C/C(C)=C/C=C/C(C)=C/C(=O)O)C(C)(C)CCC1` [Retinoic Acid], the results for the DIFFERENTIATION result in the data set with SH-SY5Y cells [5] (cells observed Day 2) and in the data set on SH-SY5Y cells [5] (cells observed Day 8) were “++++ (Day 2)^b (++++ Approximately 100% of the cells)” and “+ (Day 8)^b (+ Approximately 25% of the cells)”, respectively. Further, the “onset of toxicity, retinoic acid alone” value with SH-SY5Y cells [5] (retinoic acid 20 μM) was “started showing signs of toxicity by day 6”. Further, the “cell morphology, retinoic acid alone (FIG. 6F)” value with SH-SY5Y cells [5] (retinoic acid 20 μM added on day 1) is on record as “Toxic (apoptotic) effect”. The “toxicity, retinoic acid alone” value in the data set on SH-SY5Y cells [5] (retinoic acid 40 μM) is given as “the toxicity developed too rapidly”.
In the case of β-Amyloid, the “cell morphology, Beta-amyloid alone (FIG. 6B)” value with SH-SY5Y cells [6] is “show its toxicity”.
